{
  "source": "patent US20250283124A1",
  "about": "“POLYHYDROXYALKANOATE-PRODUCING BACTERIA AND METHODS FOR MAKING AND USING THEM” (SAN DIEGO STATE UNIVERSITY (SDSU) FOUNDATION, DBA SAN DIEGO …, priority 2021, published 2025)",
  "test_system": "LW8",
  "test": "Antibiotic susceptibility testing (antibiotic disks), strain LW8",
  "type": "cell-based, Methylosinus sp.",
  "conditions": "antibiotic disks on solid P0% media, methane:air, one week, disk content as in column head",
  "protocol": "Antibiotic Resistance Tests: To identify genetic markers suitable for genetic manipulation of PHA producing cultures, an antibiotic-resistance screening using antibiotic disks was performed. All strains were plated onto solid P0% media by spreading, then up to 4 antibiotic disks were placed on top. The plates were incubated under methane:air for one week and then were evaluated.",
  "data": [
    {"compound": "[H]/N=C(/N)N[C@H]1[C@H](O)[C@@H](O)[C@H](O[C@@H]2O[C@@H](C)[C@](O)(C=O)[C@H]2O[C@@H]2O[C@@H](CO)[C@H](O)[C@@H](O)[C@@H]2NC)[C@@H](N/C(N)=N\\[H])[C@@H]1O", "note": "[Streptomycin]", "values": [
      {"measurement": "Antibiotic susceptibility testing (AST) results", "result": "Resistant"}
    ]}
  ]
}
